Laboratory results: patent US12077503B2, “Substituted cyclic amides and their use as herbicides” (FMC CORPORATION, priority 2015, dated 2024)

Tests used:
Format in all cases: in vivo
[1] = test system: Kochia (Kochia scoparia); experiment: Test A preemergence; details: Bassia scoparia, pre-emergence, 240 h, preemergence, read-out: Kochia plant response rating
Summary of the method: (§1)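 Each rating is a visual injury score from 0 to 100 given about 10 d after treatment, judged against untreated controls kept alongside in the greenhouse. In loam soil–sand blend, seeds got a preemergence directed soil spray, while postemergence plants were 2 to 10 cm tall at spraying.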

[2] = test system: barnyardgrass (Echinochloa crus-galli); experiment: Test A preemergence; details: Echinochloa crus-galli, pre-emergence, 240 h, preemergence, read-out: Barnyardgrass plant response rating
Summary of the method: as §1

[3] = test system: giant foxtail (Setaria faberii); experiment: Test A preemergence; details: Setaria faberi, pre-emergence, 240 h, preemergence, read-out: Foxtail, Giant plant response rating
Summary of the method: as §1

[4] = test system: pigweed (Amaranthus retroflexus); experiment: Test A preemergence; details: Amaranthus retroflexus, pre-emergence, 240 h, preemergence, read-out: Pigweed plant response rating
[5] = test system: ragweed (common ragweed, Ambrosia elatior); experiment: Test A preemergence; details: Ambrosia artemisiifolia, pre-emergence, 240 h, preemergence, read-out: Ragweed plant response rating
Summary of the method: as §1

[6] = test system: ryegrass, Italian (Italian ryegrass, Lolium multiflorum); experiment: Test A preemergence; details: Lolium multiflorum, pre-emergence, 240 h, preemergence, read-out: Ryegrass, Italian plant response rating
Summary of the method: as §1

[7] = test system: Galium (catchweed bedstraw, Galium aparine); experiment: Test A postemergence; details: Galium, post-emergence, 240 h, postemergence, read-out: Galium plant response rating
Summary of the method: as §1

[8] = test system: Kochia (Kochia scoparia); experiment: Test A postemergence; details: Bassia scoparia, post-emergence, 240 h, postemergence, read-out: Kochia plant response rating
Summary of the method: as §1

[9] = test system: barnyardgrass (Echinochloa crus-galli); experiment: Test A postemergence; details: Echinochloa crus-galli, post-emergence, 240 h, postemergence, read-out: Barnyardgrass plant response rating
Summary of the method: as §1

[10] = test system: blackgrass (Alopecurus myosuroides); experiment: Test A postemergence; details: Alopecurus myosuroides, post-emergence, 240 h, postemergence, read-out: Blackgrass plant response rating
Summary of the method: as §1

[11] = test system: corn (Zea mays); experiment: Test A postemergence; details: Zea mays, post-emergence, 240 h, postemergence, read-out: Corn plant response rating
Summary of the method: as §1

[12] = test system: giant foxtail (Setaria faberii); experiment: Test A postemergence; details: Setaria faberi, post-emergence, 240 h, postemergence, read-out: Foxtail, Giant plant response rating
Summary of the method: as §1

[13] = test system: pigweed (Amaranthus retroflexus); experiment: Test A postemergence; details: Amaranthus retroflexus, post-emergence, 240 h, postemergence, read-out: Pigweed plant response rating
Summary of the method: as §1

[14] = test system: ragweed (common ragweed, Ambrosia elatior); experiment: Test A postemergence; details: Ambrosia artemisiifolia, post-emergence, 240 h, postemergence, read-out: Ragweed plant response rating
Summary of the method: as §1

[15] = test system: ryegrass, Italian (Italian ryegrass, Lolium multiflorum); experiment: Test A postemergence; details: Lolium multiflorum, post-emergence, 240 h, postemergence, read-out: Ryegrass, Italian plant response rating
Summary of the method: as §1

[16] = test system: wheat (Triticum aestivum); experiment: Test A postemergence; details: Triticum aestivum, post-emergence, 240 h, postemergence, read-out: Wheat plant response rating
Summary of the method: as §1

[17] = 125 g ai/ha, 0 to 100 scale where 0 is no effect and 100 is complete control, approx. 10 d
[18] = 500 g ai/ha, visual injury rating about 10 d after treatment, 0 to 100 scale (0 no effect, 100 complete control)
[19] = 125 g ai/ha, visual injury on 0 to 100 scale (0 no effect, 100 complete control), approx. 10 d
[20] = 500 g ai/ha, 0 to 100 scale, 0 is no effect, 100 is complete control

C/C=C/N1C[C@@H](c2cccc(C(F)(F)F)c2)[C@H](C(=O)Nc2ccccc2F)C1=O (racemic) [Compound 1094]
pest or weed control at 125 g/ha [1, 17]: 0%
pest or weed control at 500 g/ha [1, 18]: 0%
pest or weed control at 125 g/ha [2, 17]: 0%
pest or weed control at 500 g/ha [2, 18]: 80%
pest or weed control at 125 g/ha [3, 17]: 90%
pest or weed control at 500 g/ha [3, 18]: 100%
pest or weed control at 125 g/ha [4, 17]: 0%
pest or weed control at 500 g/ha [4, 18]: 0%
pest or weed control at 125 g/ha [5, 17]: 0%
pest or weed control at 500 g/ha [5, 18]: 0%
pest or weed control at 125 g/ha [6, 17]: 0%
pest or weed control at 500 g/ha [6, 18]: 0%
pest or weed control at 125 g/ha [7, 19]: 20%
pest or weed control at 500 g/ha [7, 20]: 20%
pest or weed control at 125 g/ha [8, 19]: 0%
pest or weed control at 500 g/ha [8, 20]: 0%
pest or weed control at 125 g/ha [9, 19]: 40%
pest or weed control at 500 g/ha [9, 20]: 80%
pest or weed control at 125 g/ha [10, 19]: 0%
pest or weed control at 500 g/ha [10, 20]: 30%
plant injury at 125 g/ha [11, 19]: 0%
plant injury at 500 g/ha [11, 20]: 0%
pest or weed control at 125 g/ha [12, 19]: 30%
pest or weed control at 500 g/ha [12, 20]: 80%
pest or weed control at 125 g/ha [13, 19]: 0%
pest or weed control at 500 g/ha [13, 20]: 20%
pest or weed control at 125 g/ha [14, 19]: 0%
pest or weed control at 500 g/ha [14, 20]: 0%
pest or weed control at 125 g/ha [15, 19]: 0%
pest or weed control at 500 g/ha [15, 20]: 20%
plant injury at 125 g/ha [16, 19]: 20%
plant injury at 500 g/ha [16, 20]: 30%
